Key:
[1] = Optical properties: excitation/emission maxima and absolute fluorescence quantum yield; type: physicochemical
Protocol: Analysis were performed with a Waters Atlantis dC18 5 μm, 4.6×150 mm column using a gradient of phase A CH3COONH4 10 mM and phase B acetonitrile. Measured mass/charge ratios are listed for each compound. A dual-beam UV-VIS spectrophotometer (Lambda 40, Perkin Elmer) was used to determine the absorbance (Abs) of the compounds of the invention. […] The measurements were performed using an excitation wavelength at maximum absorbance of different dyes, and the sample was excited with a […] Xenon Light Source. Detection was performed by photomultiplier tubes (PMT-NIR) cooled detector or by TBX-04 detector. Dye solutions were carefully prepared to have an absorbance lower than 0.1 (optical densities) to minimize re-absorption phenomena. The compounds of the invention have been characterized in terms of their optical properties in vitro in aqueous medium (i.e., water/PBS pH 7.4) and in a clinical chemistry control serum (Seronorm, Sero SA), mimicking the chemical composition and optical properties of human serum. All dye or dye-conjugate solutions were freshly prepared.

[2] = test system: U87MG cells; test: Tumor uptake by optical imaging, subcutaneous human glioblastoma model; type: in vivo, Balb/c nu/nu mice; settings: iv 1 nmol, 1-2 hours after administration, tumor vs muscle
Protocol: Tumor uptake experiments were carried out in an animal model of human glioblastoma (subcutanous) overexpressing the integrin receptors, particularly αvβ3. Briefly, human glioblastoma U87MG cells (ATCC, HTB-14) were cultured in Eagle's Minimum Essential Medium (EMEM) supplemented with 10% Fetal Bovine Serum (FBS), 2 mM glutamine, 100 IU/mL penicillin, 100 μg/mL streptomycin. Male Balb/c nu/nu mice, 4-6 weeks of age (Charles River Laboratories), underwent subcutaneous implantation (right flank) of about 10 million cells suspended in 0.1 mL of EMEM. Mice were housed 4 per cage with food and water ad libitum. […] Then, AIN-76a rodent diet irradiated (Research Diets), a special diet that reduces auto-fluorescence, was used up to the end of the experiments. Tumor growth was monitored by longitudinal assessments using a caliper up to the target size of 300-600 mm^3 (3-4 weeks after cell implantation). […]
In vivo imaging was performed under gas anesthesia (Sevofluorane 6-8% in oxygen). […] Regions of interest (ROIs) were drawn on the tissues of interest for each fluorescence image at every time point to evaluate signal intensity (expressed as Average Radiant Efficiency). The ratio between the fluorescence signal in the tumor and in the muscle (background tissue) was then calculated to assess the contrast.

[3] = test system: WM-266-4 human melanoma cells; test: Cell uptake by flow cytometry (FACS); type: cell-based
Protocol: The human melanoma cell line WM-266-4 (ATCC, CRL-1676) was used as in vitro model to assess the cell uptake of representative integrin-binding Compounds 1 and 3, based on the high expression of the integrin receptors, particularly αvβ3, on the membrane of these cells (Capasso et al., PlosOne 2014).
Adherent cells at about 70% confluence were incubated with the compounds 1 or 3 (1 μM) for 2h at 37° C. (5% CO2) in presence of Dulbecco's Modified Eagle's Medium (DMEM) supplemented with 10% FBS, 2 mM glutamine, 100 IU/mL penicillin and 100 μg/mL streptomycin. After two washing steps with PBS, cells were detached using 0.1 mM EDTA in PBS, centrifuged and suspended in buffer (PBS, 0.5% BSA, 0.1% NaN3) for flow cytometry experiments. Fluorescence Activated Cell Sorting (FACS) was used to detect the fluorescence signal within the cells, as measure of cell uptake. Samples were excited with an Argon laser and the emission detected using a 670 nm longpass filter. Values of fluorescence intensity were obtained from the histogram statistic produced by the instrument software.
The residual internalization was calculated by considering the value of fluorescence intensity in absence of the competitor as 100%.
Furthermore, to assess the effect of biological fluids on the cell uptake, parallel experiments were performed incubating the cells with a compounds of the invention in presence of human serum from male AB plasma (Sigma Aldrich, H4522) or human albumin (Sigma Aldrich, A9511). The residual internalization was calculated by considering the value of fluorescence intensity in absence of the serum as 100%. Such uptake assessment also represents an indication of the percentage of compound which is sequestered by the plasma proteins, in particular albumin, when it diffuses through the vascular compartment before reaching the tissue of interest and the particular targeted receptor.

[4] = target: T1, human recombinant integrin αvβ3 (Homo sapiens, UniProt P05106+P06756); test: Integrin receptor affinity ELISA (vitronectin-coated plates); type: binding; settings: tested in duplicate; read-out: Receptor affinity (IC50)
T1 construct: purchased R&D Systems

Compound: CC(CC[N+]1=C(/C=C/C=C/C=C/C=C2/N(CCCCCC(=O)NCCCC[C@@H]3NC(=O)C(Cc4ccccc4)NC(=O)[C@H](CC(=O)O)NC(=O)CNC(=O)[C@H](CCCNC(=N)N)NC3=O)c3ccc(C(=O)NCC(O)C(O)C(O)C(O)CO)cc3C2(C)C)C(C)(C)c2cc(C(=O)NCC(O)C(O)C(O)C(O)CO)ccc21)S(=O)(=O)[O-] (stereo partly drawn) [Compound 1]
- Max Em ([1]; PBS pH 7.4): 786 nm
- Max Ex ([1]; PBS pH 7.4): 757 nm
- Φ (absolute fluorescence quantum yield) ([1]; PBS pH 7.4): 9.8%
- Φ (absolute fluorescence quantum yield) ([1]; Seronorm control serum): 13.0%
- Tumor-to-background ratio (TBR) [2]: 2-2.5
- Residual uptake in the presence of 4% HSA ([3]; 1 μM, 2h at 37° C.): 70%
- Residual cell uptake in presence of human serum ([3]; 1 μM, 2h at 37° C., uptake without serum = 100%): 80%
- Residual uptake in the presence of c(RGDfK) as competitor ([3]; 100 μM c(RGDfK), uptake without competitor = 100%): 10%
- IC50 [4]: 2.96 ± 0.49 nM

Source: patent US20220242853A1, “MODIFIED CYANINE DYES AND CONJUGATES THEREOF” (BRACCO IMAGING S.P.A., priority 2019, published 2022)
